{
  "source": "paper PMC5923171",
  "about": "“Novel Zinc-Attenuating Compounds as Potent Broad-Spectrum Antifungal Agents with In Vitro and In Vivo Efficacy” (Antimicrobial Agents and Chemotherapy, 2018)",
  "key": {"[1]": {"experiment": "Potentiometric titration with MgCl2", "assay_type": "binding", "settings": "DMSO-water (70:30, vol/vol)"}, "[2]": {"tested_on": "Candida albicans SC5314", "experiment": "In vivo fungal kidney burden candidiasis model", "design": "species or system BALB/c mice", "settings": "for Mean log CFU/kidney / Mean log CFU/kidney reduction: 60 mg/kg i.p. twice a day; for Mean log CFU/kidney reduction: vs untreated control; for adverse effects following dosing: 60 mg/kg i.p., mice", "experimental": "A murine model of systemic candidiasis was established according to a previously described method ([44]). BALB/c mice were infected with a 0.1-ml inoculum (1 × 10^5 to 5 × 10^5 CFU) of Candida albicans SC5314 cells by the intravenous route on day 0. Compounds were tested at doses of 60 mg/kg. Administration of compound was initiated 24 h prior (day −1) to infection (day 0) by the intraperitoneal route, dosing twice a day for 4 days (day −1 to day 2). ZAC307 was also evaluated with administration of the compounds given after the infection at day 0 (no pretreatment) and following dosing twice a day for 3 days (days 0 to 2). Fluconazole was used as a comparator drug. Six mice were used for each group, and the untreated control group was exposed to the vehicle alone. ZAC989 and ZAC307 were formulated by taking 60 mg of compound and adding this to 2 ml and 4 ml of 0.1 N NaOH, respectively. After mixing and sonication of the resulting solutions, 4 ml of purified water was added. The pH was adjusted to 9.0 with 0.1 N HCl solution, followed by the addition of 90 mg of NaCl. The solutions were then diluted to 10 ml and filtered through a 0.22-μm polyvinylidene difluoride (PVDF) filter. Sample collection and processing were performed as follows. Twelve hours after the last dose, all treated and untreated animals were sacrificed by cervical dislocation and kidneys were collected in 3 ml of sterile normal saline. The samples were homogenized, serially diluted, and plated on Sabouraud dextrose agar (SDA). SDA plates were incubated for 24 to 48 h at 35°C, and CFU were enumerated and reported as log CFU/kidney. The endpoint was mean log CFU of fungi in kidneys of treated animals compared to that of untreated animals. The study was conducted in conformance with an application submitted to the Committee for the Purpose of Control and Supervision of Experiments on Animals (CPCSEA), New Delhi, India, after approval from the Institutional Animal Ethics Committee (IAEC)."}, "[3]": {"tested_on": "A. fumigatus AF54 (ΔzrfC)", "experiment": "Growth capacity in sRPMI zinc-limiting medium, 24-well plates", "assay_type": "cell-based, Aspergillus fumigatus", "settings": "average, either with or without simultaneous exposure to ZAC307 or ZAC989", "experimental": "(§1) Growth capacity experiments with A. fumigatus strains AF14, AF54, AF48, AF732, and AF731 were performed in 24-well flat-bottomed tissue culture plates (35-3047; Falcon). A stock solution of 10 mM TPEN (P4413; Sigma) was prepared in pure ethanol. For these experiments, 5 mM stock solutions of ZAC307 and ZAC989 were prepared by dissolving each compound in 80% (vol/vol) ethanol. A 0.5 M stock solution of Na2EDTA·2H2O (1.08421.1000; Merck) was prepared in sterile water. A 1× stock solution (10.4 g/liter) of RPMI 1640 medium (R8755; Sigma) supplemented with 10 μM FeSO4·7H2O, 1 μM CuSO4·5H2O, and 1 μM MnCl2·H2O (sRPMI) was prepared under aseptic conditions and used as standard culture medium. In each well, 1 ml of culture medium containing sRPMI medium, Tween 20, ethanol (or the specified compound dissolved in 80% ethanol), and 10^5 conidia was dispensed to achieve final concentrations of 0.7×, 0.05% (vol/vol), 1.2% (vol/vol), and 10^5 conidia/ml, respectively. Plates were incubated for 44 h at 37°C in a humid atmosphere. To quantitate mycelial growth, each plate was scanned in an Agfa SnapScan 1236s scanner, and the intensity of the wells was quantified using the open-source image processing program Image J2. The data were represented and analyzed with Prism software 7.0."}, "[4]": {"tested_on": "A. fumigatus AF48 (ΔzrfA ΔzrfB)", "experiment": "Growth capacity in sRPMI zinc-limiting medium, 24-well plates", "assay_type": "cell-based, Aspergillus fumigatus", "settings": "75 μM compound, 44 h, 37°C", "experimental": "as §1"}, "[5]": {"tested_on": "C. krusei ATCC 6258", "experiment": "Antifungal susceptibility testing (MIC)", "assay_type": "cell-based, Candida krusei", "settings": "Pichia kudriavzevii, ATCC6258; at least 50% growth inhibition, RPMI, 24 h, 34°C", "experimental": "Antifungal susceptibility testing was carried out as described previously ([38], [39]), with a few modifications. Briefly, for each yeast or mold growth inhibition assay, frozen stocks of yeast cells or spores were diluted to a final concentration of 0.5 × 10^5 to 2.5 × 10^5 CFU/ml in sterile water. ZAC989, ZAC307, and ZAC623 were dissolved in DMSO to 10 mM stocks from which half-log serial dilutions were prepared. Growth assays were subsequently performed by pipetting 3 μl of compound dissolved in DMSO (giving a final concentration of 1.5% DMSO), 100 μl of cell-spore suspension, and 97 μl of 2× RPMI medium (20.8 g/liter of RPMI 1640 medium, 69.06 g/liter of morpholinepropanesulfonic acid [MOPS], 36 g/liter of glucose) into a microtiter plate that was incubated for 24 h (yeasts) or 48 to 72 h (molds) at 34°C. Fungal growth was determined spectrophotometrically by optical density reading of each well at a wavelength of 492 nm on a Victor X5 (Perkin-Elmer) plate reader. […] Standard errors between repeated experiments were generally below 5%. The growth effect of exogenous addition of various divalent metals was evaluated by performing the antifungal susceptibility assay in the presence of 5 μM ZAC989 or ZAC307 and with increasing concentrations (0.003 to 50 μM) of ZnSO4, CuSO4, (NH4)2Fe(SO4)2, MgCl2, and CaCl2."}, "[6]": {"target": "fungal plasma membrane H^+-ATPase (Saccharomyces cerevisiae, UniProt P05030)", "sequence (P05030 whole entry)": "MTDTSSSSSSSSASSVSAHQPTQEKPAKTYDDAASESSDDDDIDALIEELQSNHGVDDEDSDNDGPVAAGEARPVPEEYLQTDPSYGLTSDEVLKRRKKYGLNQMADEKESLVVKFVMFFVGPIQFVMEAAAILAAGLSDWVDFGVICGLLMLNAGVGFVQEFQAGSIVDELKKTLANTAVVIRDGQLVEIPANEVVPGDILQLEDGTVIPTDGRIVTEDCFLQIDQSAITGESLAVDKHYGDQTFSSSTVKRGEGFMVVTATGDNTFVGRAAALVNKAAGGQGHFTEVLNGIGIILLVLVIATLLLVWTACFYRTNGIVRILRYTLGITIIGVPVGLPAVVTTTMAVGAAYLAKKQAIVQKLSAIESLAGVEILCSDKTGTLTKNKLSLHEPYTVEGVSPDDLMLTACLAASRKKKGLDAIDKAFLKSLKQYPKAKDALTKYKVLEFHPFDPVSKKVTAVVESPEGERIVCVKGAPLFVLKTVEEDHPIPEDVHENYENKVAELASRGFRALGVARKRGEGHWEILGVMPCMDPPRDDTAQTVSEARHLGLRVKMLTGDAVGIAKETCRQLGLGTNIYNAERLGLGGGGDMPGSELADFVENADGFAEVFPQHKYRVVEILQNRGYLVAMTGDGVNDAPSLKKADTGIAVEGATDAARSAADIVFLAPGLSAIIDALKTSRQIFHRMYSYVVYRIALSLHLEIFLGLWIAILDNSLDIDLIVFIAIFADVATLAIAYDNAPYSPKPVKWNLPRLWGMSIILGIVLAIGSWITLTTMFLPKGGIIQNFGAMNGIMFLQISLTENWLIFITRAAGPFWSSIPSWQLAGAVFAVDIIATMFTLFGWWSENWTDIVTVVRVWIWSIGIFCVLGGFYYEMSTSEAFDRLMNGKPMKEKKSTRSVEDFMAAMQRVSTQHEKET", "experiment": "H+-ATPase-inhibitory activity", "assay_type": "biochemical"}, "[7]": {"tested_on": "C. albicans SC5314", "experiment": "Time-kill assay", "assay_type": "cell-based, Candida albicans", "settings": "0.5 μg/ml AMB, 3.6 μg/ml ZAC989, 4.4 μg/ml EDTA, 4.2 μg/ml TPEN; up to 24 h", "experimental": "C. albicans SC5314 cells (10^5 CFU/ml) were incubated in 10 ml of RPMI medium at 30°C with gentle agitation (150 rpm) in the presence of EDTA (15 μM), TPEN (10 μM), ZAC989 (10 μM), or AMB (0.5 μM). At the desired time points (0, 3, 5.5, and 24 h), a 100-μl aliquot was removed for each test condition and serially diluted (10-fold) in saline (0.9% NaCl), and 30 μl of each dilution was plated on YPD agar plates. The colony count on each YPD plate was determined after incubation at 30°C for 48 h ([40]). C. albicans cells treated with DMSO (1%, vol/vol) served as a control."}, "[8]": {"tested_on": "A. fumigatus", "settings": "combination with amphotericin B lipid complex (ABLC), compared with either agent alone; cited from earlier work"}},
  "note": "Marks after values point to notes of the source that are not given here.",
  "data": [
    {"smiles": "CN(C)c1cc(-n2nc(-c3ccccc3)cc2O)ncn1", "note": "[ZAC307, 2-[6-(dimethylamino)pyrimidin-4-yl]-5-phenyl-pyrazol-3-ol]", "values": [
      {"measurement": "Mg^2+ binding", "setting": "[1]", "value": "negligible"},
      {"measurement": "Mean log CFU/kidney", "setting": "[2]; day −1 to day 2 (pretreatment)", "value": "4.73 ± 0.19", "unit": "log CFU/kidney"},
      {"measurement": "Mean log CFU/kidney reduction", "setting": "[2]; day −1 to day 2 (pretreatment)", "value": 1.06, "unit": "log CFU/kidney"},
      {"measurement": "Mean log CFU/kidney", "setting": "[2]; days 0 to 2, no pretreatment", "value": "4.77 ± 0.19", "unit": "log CFU/kidney"},
      {"measurement": "Mean log CFU/kidney reduction", "setting": "[2]; days 0 to 2, no pretreatment", "value": "1.03* log CFU/kidney"},
      {"measurement": "adverse effects following dosing", "setting": "[2]", "value": "no adverse effects"},
      {"measurement": "reduction of growth capacity at 2 μM zinc compared to 50 μM zinc", "setting": "[3]", "value": 24.6, "unit": "fold"},
      {"measurement": "reduction of growth capacity, 2 μM zinc plus compound compared to 50 μM zinc", "setting": "[4]", "value": 3.9, "unit": "fold"},
      {"measurement": "MIC", "setting": "[5]", "value": 0.4, "unit": "µg/mL"},
      {"measurement": "H^+-ATPase-inhibitory activity", "setting": "[6]", "value": "lacked H^+-ATPase-inhibitory activity"}
    ]},
    {"smiles": "O=C(O)CN(CCN(CC(=O)O)CC(=O)O)CC(=O)O", "note": "[EDTA]", "values": [
      {"measurement": "time-kill activity (fungistatic or fungicidal)", "setting": "[7]", "value": "fungistatic effect within the first 24 h of exposure"},
      {"measurement": "survival times and tissue burden", "setting": "[8]", "value": "improved survival times and a lower tissue burden of A. fumigatus"}
    ]},
    {"smiles": "Cc1cc(O)n(-c2cc(N3CC[C@H](Oc4cnccc4C#N)C3)ncn2)n1", "note": "[ZAC989, 3-[(3S)-1-[6-(5-hydroxy-3-methyl-pyrazol-1-yl)pyrimidin-4-yl]pyrrolidin-3-yl]oxy-pyridine-4-carbonitrile]", "values": [
      {"measurement": "Mg^2+ binding", "setting": "[1]", "value": "negligible"},
      {"measurement": "Mean log CFU/kidney", "setting": "[2]; day −1 to day 2 (pretreatment)", "value": "4.09 ± 0.31", "unit": "log CFU/kidney"},
      {"measurement": "Mean log CFU/kidney reduction", "setting": "[2]; day −1 to day 2 (pretreatment)", "value": 1.71, "unit": "log CFU/kidney"},
      {"measurement": "adverse effects following dosing", "setting": "[2]", "value": "lethargy lasting for 5 to 15 min after dosing"},
      {"measurement": "reduction of growth capacity at 2 μM zinc compared to 50 μM zinc", "setting": "[3]", "value": 24.6, "unit": "fold"},
      {"measurement": "reduction of growth capacity, 2 μM zinc plus compound compared to 50 μM zinc", "setting": "[4]", "value": 4.5, "unit": "fold"},
      {"measurement": "MIC", "setting": "[5]", "value": 0.8, "unit": "µg/mL"},
      {"measurement": "H^+-ATPase-inhibitory activity", "setting": "[6]", "value": "lacked H^+-ATPase-inhibitory activity"}
    ]},
    {"smiles": "c1ccc(CN(CCN(Cc2ccccn2)Cc2ccccn2)Cc2ccccn2)nc1", "note": "[TPEN, N,N,N’,N’-tetrakis(2-pyridylmethyl)-ethylenediamine]", "values": [
      {"measurement": "time-kill activity (fungistatic or fungicidal)", "setting": "[7]", "value": "fungistatic effect within the first 24 h of exposure"}
    ]}
  ]
}
